Patent US10669312B2, “Peptide for suppressing osteoclast differentiation and use thereof” (CAREGEN CO., LTD., priority 2013, dated 2020)
Entries after “also recorded” stand apart in the source; their conditions may differ. Ends that are not written are not given here.

Assays:
Format in all cases: cell-based
[1] = tested on: pSmad1/5/8; assay: Osteogenic differentiation signal, Smad1/5/8 phosphorylation, western blotting; details: MC3T3-E1 cells, serum-starved 24 hours, 10 μg/ml peptide, 30 minutes
Experimental: In order to verify whether pSmad1/5/8, which is a signal involved in osteogenic differentiation, was activated by the present peptides, MC3T3-E1 cells were dispensed into 6-well plates at 2×10^5 cells, and then cultured for 24 hours under the conditions of 37° C. and 5% CO2. After 24 hours, the medium was changed with a serum-free medium, and then the cells were starved for 24 hours, treated with the 10 μg/ml peptides or 50 ng/ml BMP2, used as a positive control, for 30 minutes, washed with PBS, and dissolved in a lysis buffer, thereby obtaining proteins, which were then subjected to western blotting.

[2] = tested on: osteoprotegerin (OPG); assay: Osteoblast differentiation marker mRNA expression (PCR), OPG; details: MC3T3-E1 cells, 10 or 50 μg/ml peptide, two days
Experimental: (§1) MC3T3-E1 cells were treated with 10 or 50 μg/ml of the peptides synthesized in synthetic example 1 to induce the differentiation for two days, and tests for verifying the mRNA expression of osteoblast differentiation markers, such as osteocalcin (OCN), osteoprotegerin (OPG), bone sialoprotein (BSP), and osteopontin (OPN), were conducted. Target-specific primer sequences used in PCR were as follows: OCN forward primer sequence, [NT] (SEQ ID NO:15) and OCN reverse primer sequence, [NT] (SEQ ID NO:16) (annealing temperature, 60° C.); OPG forward primer sequence, [NT] (SEQ ID NO:17) and OPG reverse primer sequence, [NT] (SEQ ID NO:18) (annealing temperature, 60° C.); BSP forward primer sequence, [NT] (SEQ ID NO:19) and BSP reverse primer sequence, [NT] (SEQ ID NO:20) (annealing temperature, 60° C.); OPN forward primer sequence, [NT] ID NO:21) and OPN reverse primer sequence, [NT] ID NO:22) (annealing temperature, 50° C.). […] Therefore, the peptides of the present invention can promote osteoblast differentiation by increasing the genetic expressions of OCN, OPG, BSP, and OPN, which are osteoblast differentiation markers.

[3] = tested on: osteocalcin (OCN); assay: Osteoblast differentiation marker mRNA expression (PCR), OCN; details: MC3T3-E1 cells, 10 or 50 μg/ml peptide, two days
Experimental: as §1

[4] = tested on: TRAP; assay: TRAP activity in differentiated Raw264.7 cells, absorbance 405 nm; details: 10 ng/ml RANKL, 50 ng/ml TNF-α, 1 or 10 μg/ml peptide, five days
Experimental: Raw264.7 cells were treated in combination with 10 ng/ml RANKL, 50 ng/ml TNF-α, or the 1 or 10 μg/ml peptide synthesized in synthetic example 1 to induce differentiation for five days, and then the inhibition degree of the activity of TRAP, an osteoclast differentiation marker, was tested. After culture, the culture liquid was removed, and then 100 μl of a lysis buffer (20 mM tris buffer, 3% triton X-100) was added to disrupt cell walls. A reaction solution is prepared from 500 μl of a citrate solution (18 mM citric acid, 9 mM sodium chloride, 12 mM surfactant; pH 3.5), 50 μl of a tartrate solution, and 500 μl of a 20 mM phosphate substrate. 100 μl of the lysate and 100 μl of the reaction solution were added in the same amount, and then the reaction was conducted at 37° C. for 30 minutes. For colorimetric analysis, the absorbance was determined at 405 nm using a spectrophotometer. It was validated that, in cases where the treatment with the peptide of SEQ ID NO: 1 or SEQ ID NO: 2 together with RANKL and TNF-α, the peptides inhibited the activity of TRAP, which is an osteoclast differentiation marker, in a concentration-dependent manner (FIGS. 4a and 4b).

[5] = tested on: Raw264.7 cells; assay: Osteoclast differentiation inhibition, TRAP staining; details: 10 ng/ml RANKL, 50 ng/ml TNF-α, 1 or 10 μg/ml peptide, five days
Experimental: In order to analyze the IL-3-like action and the inhibitory action of the peptides of SEQ ID NO: 1 and SEQ ID NO: 2, synthesized in synthetic example 1, TRAP staining was conducted using Raw264.7 strain differentiable into osteoclasts while referring to methods, such as tartrate-resistant acid phosphatase staining (Rizzino, et al. Cancer Res. 48:4266(1988)).
Raw264.7 cell lines (ATCC) were cultured in Dulbecco's modified Eagle's medium (DMEM, Gibco, U.S.A.) supplemented with 10% fetal bovine serum (FBS, Sigma) using each 250 ml-flask for tissue culture. The cultured cell lines were carefully detached from the bottom of the culture container using a pipette, followed by centrifugation, to obtain only cell precipitates. The cell precipitates were re-suspended in DMEM culture medium supplemented with 10% FBS, and then added to a […] for tissue culture plate at 1×10^4 cells per each well. For the induction of differentiation, the blank sample and RAW264.7 cells were treated with 10 ng/ml RANKL, 50 ng/ml TNF-α, and 1 μg/ml or 10 μg/ml synthesized peptides dissolved in 10% distilled water in a sterile state, […] After 72 hours, the medium was changed with the same culture liquid, and then the blank sample and the cells were treated with 10 ng/ml RANKL, 50 ng/ml TNF-α, and 1 μg/ml or 10 μg/ml synthesized peptides, and then cultured under the same conditions for 48 hours. […]

[6] = tested on: bone sialoprotein (BSP); assay: Osteoblast differentiation marker mRNA expression (PCR), BSP; details: MC3T3-E1 cells, 10 or 50 μg/ml peptide, two days
Experimental: as §1

[7] = tested on: osteopontin (OPN); assay: Osteoblast differentiation marker mRNA expression (PCR), OPN; details: MC3T3-E1 cells, 10 or 50 μg/ml peptide, two days
Experimental: as §1

Sequence | phosphorylation of Smad1/5/8 [1] | mRNA level of osteoprotegerin (OPG) [2] | mRNA level of osteocalcin (OCN) [3] | activity of TRAP, osteoclast differentiation marker [4] | RANKL- and TNF-α-induced differentiation of Raw264.7 into osteoclasts [5] | mRNA level of bone sialoprotein (BSP) [6] | mRNA level of osteopontin (OPN) [7]
NCSNMICEIITH (cysteine pairing not given here) [SEQ ID NO: 1, IL-3-derived synthetic peptide, 12 amino acids] | led to the phosphorylation of Smad1/5/8; also recorded: increased | increased | increased | inhibited | inhibit | increased | increased
RRKLTFYLKTLE [SEQ ID NO: 2, IL-3-derived synthetic peptide, 12 amino acids] | led to the phosphorylation of Smad1/5/8; also recorded: increased | increased | increased | inhibited | inhibit | increased | increased
